Assay results as given in patent US20050112573A1, “Method of detecting toxic substance” (priority 2001, published 2005).

Test system: yeast genes (level of expressed mRNA)
Assay: DNA chip analysis of expressed mRNA of yeast genes after 2 h culture with a toxic chemical substance
Type: cell-based, Saccharomyces cerevisiae S288C
Description: Yeast (Saccharomyces cerevtisiae S288C (α SUC2mal mel gap2 CUP1)) were cultured at 25° C. on YPD medium (yeast extract 1%, polypepton 2%, glucose 2%). One of toxic chemical substances was added to the cell at logarithmic growth phase, and the cell was further cultured for two hours. Cell was cultured without any chemical substance in the same condition, and was used as control. Concentrations of the chemical substances were defined to inhibit the growth of the yeast but not lead to death.
After the completion of cultivation, the culture was centrifuged to collect the cells. To the cells, sodium acetate buffer (50 mM sodium acetate, 10 mM EDTA, 1% SDS) was added, and the mixture was shaken at 65° C. for five minutes, followed by returning to room temperature, and obtaining the supernatant, which procedure was repeated two times. To the supernatant, ½ amount of a solution of phenol/chloroform was added, and the mixture was centrifuged to give a supernatant, which was added with an equal amount of chloroform, and the mixture was centrifuged to give a supernatant. To the supernatant, an equal amount of isopropanol containing 0.3 M sodium acetate was added, and the mixture was allowed to stand at room temperature for 30 minutes, after which the mixture was centrifuged to give a sediment of the whole RNAs. Seventy % ethanol was added to the sediment, and the mixture was again centrifuged to give a sediment, which was then dried and dissolved in water. mRNA was isolated from the whole RNAs as followings. In view of the fact that a poly A chain is attached to the 3′ terminus of mRNA, a polynucleotide having a poly T structure which was immobilized on the surface of latex beads was used to trap the mRNA, and then the mRNA was washed and eluted with spine column (Oligotex-dT30<Super>mRNA Purification Kit, Takara). Reverse transcription of the mRNA was conducted with a reverse transcriptase (Super Script II Reverse Transcriptase; catalogue No. 18064-014, GibcoBRL) using fluorescence-labeled nucleotides to give cDNAs that were introduced with Cy3-dUTP or Cy5-dUTP during the reverse transcription.
The labeled cDNAs were dissolved in TE buffer (10 mM Tris-HCl/1 mM EDTA, pH8.0), and the solution was dropped on the DNA chip containing the whole genes of yeast (DNA Chip Research Inc. Japan) so that the cDNAs were hybridized on the DNA chip at 65° C. for over 12 hours. The fluoresces intensity of the DNA chip was read with a scanner, and the ratio relative to the fluorescence intensity resulting from the absence of chemical substance was estimated as the following, which is shown in Tables 1 to 9: [formula]
In the Tables, “Intensity” indicated in the rightmost column is a value of the level of expressed mRNA of each gene in control cells as divided by the average level of the expressions of the whole genes.

Compound: CN(C)C(=S)SSC(=S)N(C)C [(10), Tetramethylthiuram disulfide]
- The level of expressed mRNA in the presence of chemical substance/The level of expressed mRNA in the absence of chemical substance (yeast gene YAR010C): 1.1
- The level of expressed mRNA in the presence of chemical substance/The level of expressed mRNA in the absence of chemical substance (yeast gene YBL005W-A): 1.5
- The level of expressed mRNA in the presence of chemical substance/The level of expressed mRNA in the absence of chemical substance (yeast gene YBL041W): 2.6
- The level of expressed mRNA in the presence of chemical substance/The level of expressed mRNA in the absence of chemical substance (yeast gene YBL043W): 14.7
- The level of expressed mRNA in the presence of chemical substance/The level of expressed mRNA in the absence of chemical substance (yeast gene YBL078C): 15.2
- The level of expressed mRNA in the presence of chemical substance/The level of expressed mRNA in the absence of chemical substance (yeast gene YBR214W): 3.5
- The level of expressed mRNA in the presence of chemical substance/The level of expressed mRNA in the absence of chemical substance (yeast gene YCL020W): 2.4
- The level of expressed mRNA in the presence of chemical substance/The level of expressed mRNA in the absence of chemical substance (yeast gene YCL027W): 16.3
- The level of expressed mRNA in the presence of chemical substance/The level of expressed mRNA in the absence of chemical substance (yeast gene YCR004C): 2.1
- The level of expressed mRNA in the presence of chemical substance/The level of expressed mRNA in the absence of chemical substance (yeast gene YCR071C): 1.2
- The level of expressed mRNA in the presence of chemical substance/The level of expressed mRNA in the absence of chemical substance (yeast gene YCR088W): 0.9
- The level of expressed mRNA in the presence of chemical substance/The level of expressed mRNA in the absence of chemical substance (yeast gene YDL008W): 3.0
- The level of expressed mRNA in the presence of chemical substance/The level of expressed mRNA in the absence of chemical substance (yeast gene YDL238C): 2.7
- The level of expressed mRNA in the presence of chemical substance/The level of expressed mRNA in the absence of chemical substance (yeast gene YDR055W): 2.4
- The level of expressed mRNA in the presence of chemical substance/The level of expressed mRNA in the absence of chemical substance (yeast gene YDR084C): 0.6
- The level of expressed mRNA in the presence of chemical substance/The level of expressed mRNA in the absence of chemical substance (yeast gene YDR085C): 2.3
- The level of expressed mRNA in the presence of chemical substance/The level of expressed mRNA in the absence of chemical substance (yeast gene YDR104C): 2.7
- The level of expressed mRNA in the presence of chemical substance/The level of expressed mRNA in the absence of chemical substance (yeast gene YDR115W): 1.0
- The level of expressed mRNA in the presence of chemical substance/The level of expressed mRNA in the absence of chemical substance (yeast gene YDR259C): 1.8
- The level of expressed mRNA in the presence of chemical substance/The level of expressed mRNA in the absence of chemical substance (yeast gene YDR315C): 1.6
- The level of expressed mRNA in the presence of chemical substance/The level of expressed mRNA in the absence of chemical substance (yeast gene YDR358W): 3.2
- The level of expressed mRNA in the presence of chemical substance/The level of expressed mRNA in the absence of chemical substance (yeast gene YDR388W): 0.9
- The level of expressed mRNA in the presence of chemical substance/The level of expressed mRNA in the absence of chemical substance (yeast gene YDR432W): 0.8
- The level of expressed mRNA in the presence of chemical substance/The level of expressed mRNA in the absence of chemical substance (yeast gene YDR481C): 1.6
- The level of expressed mRNA in the presence of chemical substance/The level of expressed mRNA in the absence of chemical substance (yeast gene YDR510W): 2.5
- The level of expressed mRNA in the presence of chemical substance/The level of expressed mRNA in the absence of chemical substance (yeast gene YEL042W): 0.3
- The level of expressed mRNA in the presence of chemical substance/The level of expressed mRNA in the absence of chemical substance (yeast gene YEL066W): 2.4
- The level of expressed mRNA in the presence of chemical substance/The level of expressed mRNA in the absence of chemical substance (yeast gene YER039C): 0.8
- The level of expressed mRNA in the presence of chemical substance/The level of expressed mRNA in the absence of chemical substance (yeast gene YER107C): 0.5
- The level of expressed mRNA in the presence of chemical substance/The level of expressed mRNA in the absence of chemical substance (yeast gene YER130C): 1.3
- The level of expressed mRNA in the presence of chemical substance/The level of expressed mRNA in the absence of chemical substance (yeast gene YFL028C): 1.8
- The level of expressed mRNA in the presence of chemical substance/The level of expressed mRNA in the absence of chemical substance (yeast gene YFL043C): 3.8
- The level of expressed mRNA in the presence of chemical substance/The level of expressed mRNA in the absence of chemical substance (yeast gene YGL158W): 0.9
- The level of expressed mRNA in the presence of chemical substance/The level of expressed mRNA in the absence of chemical substance (yeast gene YGL229C): 1.7
- The level of expressed mRNA in the presence of chemical substance/The level of expressed mRNA in the absence of chemical substance (yeast gene YGR136W): 2.2
- The level of expressed mRNA in the presence of chemical substance/The level of expressed mRNA in the absence of chemical substance (yeast gene YGR189C): 0.9
- The level of expressed mRNA in the presence of chemical substance/The level of expressed mRNA in the absence of chemical substance (yeast gene YGR213C): 6.9
- The level of expressed mRNA in the presence of chemical substance/The level of expressed mRNA in the absence of chemical substance (yeast gene YGR257C): 1.9
- The level of expressed mRNA in the presence of chemical substance/The level of expressed mRNA in the absence of chemical substance (yeast gene YHR004C): 0.6
- The level of expressed mRNA in the presence of chemical substance/The level of expressed mRNA in the absence of chemical substance (yeast gene YHR071W): 7.2
- The level of expressed mRNA in the presence of chemical substance/The level of expressed mRNA in the absence of chemical substance (yeast gene YHR139C): 46.6
- The level of expressed mRNA in the presence of chemical substance/The level of expressed mRNA in the absence of chemical substance (yeast gene YHR142W): 0.9
- The level of expressed mRNA in the presence of chemical substance/The level of expressed mRNA in the absence of chemical substance (yeast gene YIL123W): 0.2
- The level of expressed mRNA in the presence of chemical substance/The level of expressed mRNA in the absence of chemical substance (yeast gene YIL140W): 0.6
- The level of expressed mRNA in the presence of chemical substance/The level of expressed mRNA in the absence of chemical substance (yeast gene YJL073W): 0.7
- The level of expressed mRNA in the presence of chemical substance/The level of expressed mRNA in the absence of chemical substance (yeast gene YJL089W): 3.9
- The level of expressed mRNA in the presence of chemical substance/The level of expressed mRNA in the absence of chemical substance (yeast gene YJL116C): 2.6
- The level of expressed mRNA in the presence of chemical substance/The level of expressed mRNA in the absence of chemical substance (yeast gene YJR004C): 0.7
- The level of expressed mRNA in the presence of chemical substance/The level of expressed mRNA in the absence of chemical substance (yeast gene YJR086W): 1.1
- The level of expressed mRNA in the presence of chemical substance/The level of expressed mRNA in the absence of chemical substance (yeast gene YKL008C): 0.4
